Residues, ends and D or L forms follow the SMILES beside them. No end group written: not given here.
Biological target: T1, ACE (from rabbit lung) (Oryctolagus cuniculus, UniProt P12822)
T1 construct: ACE (peptidyldipeptide hydrolase from rabbit lung acetone extract); purchased Sigma; host or cells: rabbit lung (acetone extract)
T1 sequence (P12822 34-1310): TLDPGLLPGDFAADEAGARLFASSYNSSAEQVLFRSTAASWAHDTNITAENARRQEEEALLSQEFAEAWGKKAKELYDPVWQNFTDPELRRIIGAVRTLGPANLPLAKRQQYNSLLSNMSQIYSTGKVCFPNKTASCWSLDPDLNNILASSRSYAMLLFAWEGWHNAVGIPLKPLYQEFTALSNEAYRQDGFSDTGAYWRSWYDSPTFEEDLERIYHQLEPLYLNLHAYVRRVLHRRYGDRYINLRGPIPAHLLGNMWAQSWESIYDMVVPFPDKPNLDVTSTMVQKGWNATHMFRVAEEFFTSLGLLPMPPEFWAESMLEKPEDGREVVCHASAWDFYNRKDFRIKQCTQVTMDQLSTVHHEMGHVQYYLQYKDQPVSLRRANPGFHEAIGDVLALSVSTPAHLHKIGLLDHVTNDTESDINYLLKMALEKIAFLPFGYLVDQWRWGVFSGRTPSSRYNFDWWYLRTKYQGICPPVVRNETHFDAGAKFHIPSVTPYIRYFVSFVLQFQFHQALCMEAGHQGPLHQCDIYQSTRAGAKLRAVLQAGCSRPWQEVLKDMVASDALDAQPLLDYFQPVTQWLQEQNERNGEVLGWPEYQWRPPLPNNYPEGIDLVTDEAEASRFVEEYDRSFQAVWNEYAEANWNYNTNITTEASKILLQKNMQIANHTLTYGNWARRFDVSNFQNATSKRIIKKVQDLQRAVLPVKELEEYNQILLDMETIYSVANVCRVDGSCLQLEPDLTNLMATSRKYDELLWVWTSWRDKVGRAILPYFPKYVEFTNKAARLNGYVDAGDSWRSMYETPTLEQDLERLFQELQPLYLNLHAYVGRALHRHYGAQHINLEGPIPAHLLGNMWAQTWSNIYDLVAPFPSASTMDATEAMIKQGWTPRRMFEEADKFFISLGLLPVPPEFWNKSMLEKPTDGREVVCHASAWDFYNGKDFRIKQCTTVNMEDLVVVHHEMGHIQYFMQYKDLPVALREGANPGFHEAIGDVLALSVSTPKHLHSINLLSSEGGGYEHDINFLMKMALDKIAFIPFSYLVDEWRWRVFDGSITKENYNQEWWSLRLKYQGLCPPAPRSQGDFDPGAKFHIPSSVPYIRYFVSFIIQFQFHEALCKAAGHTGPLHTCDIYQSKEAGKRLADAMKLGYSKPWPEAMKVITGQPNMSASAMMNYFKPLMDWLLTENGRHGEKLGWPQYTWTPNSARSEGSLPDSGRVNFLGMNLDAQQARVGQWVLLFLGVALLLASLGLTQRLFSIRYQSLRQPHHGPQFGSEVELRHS
Assay: ACE inhibitory activity, spectrophotometric method (HHL substrate, hippuric acid at 228 nm)
Type: biochemical
Conditions: chemically synthesized peptides
Method: ACE inhibitory activity determination was achieved using the spectrophotometric method described by Cushman and Cheung. For each assay, 100 μL of HHL (12.5 mM in 0.05 M sodium borate buffer) was incubated at 37°C for 5 min. After incubation, 50 μL of bovine peptide extracts and 150 μL of ACE (peptidyldipeptide hydrolase from rabbit lung acetone extract) were added and the mixture incubated for 1 h. The enzymatic reaction was stopped by adding 250 μL of 0.5 N HCl. The hippuric acid generated by the action of the angiotensin-converting enzyme on HHL was extracted from the acidified solution into 1 mL ethyl acetate by vortex mixing for 15 s. This was centrifuged at 3,290×g for 10 min at 4°C, and a 0.7 mL aliquot of each ethyl acetate layer was transferred to clean tubes and evaporated by heating at 95°C for 20 min in a water bath. The hippuric acid was redissolved in 3 mL of 1 M NaCl, and the amount formed was determined by absorbance at 228 nm. The IC50 value, defined as the concentration of a peptide that inhibits 50% of the ACE activity, was determined by measuring the ACE inhibitory activity and the peptide contents of each of the extracts after regression analysis. ACE inhibitory activity (%) was determined using the equation:
ACE inhibitory activity (%)=[1-(S-SC)/(B-BC)]×100
where S and B are optical density (OD) values for the sample and blank, respectively, and SC and BC are the OD values for the sample control and blank, respectively.

Row | Compound | IC50
1 | N[C@@H](Cc1ccc(O)cc1)C(=O)NCC(=O)O [Tyr-Gly] | 12.7 mM
2 | QPSGSQ [Gln-Pro-Ser-Gly-Ser-Gln] | 8.78 mM
3 | CC(C)[C@H](N)C(=O)N[C@@H](CO)C(=O)N[C@@H](CO)C(=O)N[C@H](C(=O)O)C(C)C [Val-Ser-Ser-Val] (H-VSSV-OH) | 8.49 mM
4 | NC(=O)C[C@H](NC(=O)[C@H](Cc1ccccc1)NC(=O)[C@@H](N)Cc1ccc(O)cc1)C(=O)N[C@@H](CCC(=O)O)C(=O)O [Tyr-Phe-Asn-Glu] (H-YFNE-OH) | 7.62 mM
5 | N[C@@H](Cc1ccc(O)cc1)C(=O)N[C@@H](Cc1ccc(O)cc1)C(=O)O [Tyr-Tyr] (H-Tyr-Tyr-OH) | 8.6 mM
6 | LWHHT [Leu-Trp-His- His-Thr] | 5.21 mM
7 | N[C@@H](Cc1ccccc1)C(=O)NCC(=O)N[C@@H](Cc1ccc(O)cc1)C(=O)O [Phe-Gly-Tyr] (H-Phe-Gly-Tyr-OH) | 2.69 mM
8 | CC(C)C[C@H](N)C(=O)N[C@@H](CO)C(=O)N[C@@H](Cc1c[nH]c2ccccc12)C(=O)O [Leu-Ser-Trp] (H-Leu-Ser-Trp-OH) | 0.89 mM
9 | CSCC[C@H](N)C(=O)N[C@@H](C)C(=O)N[C@@H](CC(=O)O)C(=O)N[C@@H](C)C(=O)O [Met-Ala-Asp-Ala] (H-MADA-OH) | 5.92 mM
10 | N=C(N)NCCC[C@H](NC(=O)[C@@H](N)Cc1ccc(O)cc1)C(=O)N[C@@H](CCC(N)=O)C(=O)O [Tyr-Arg-Gln] (H-Tyr-Arg-Gln-OH) | 3.09 mM
